Values of other authors as cited in US9339581B2, “Absorbent and absorbent article provided therewith” (UNICHARM CORPORATION, priority 2012, dated 2016).

Conditions: at 20° C.; cited from earlier work

## CCCCC(=O)CCCC [5-nonanone]
  vapor pressure: about 230 Pa
